Consider 23 compounds from US12590063B2, “Phenol derivative” (Sumitomo Pharma Co., Ltd., priority 2020, dated 2026).

Counter-ions that a name gives are not always drawn. Like-named read-outs stand apart in the source and are kept apart here. Where only a bound is given, the exact number is not on record here.

The target in one data set is T1, Human TRPV1 (Homo sapiens, UniProt Q8NER1).
T1 construct: the TRPV1 gene (GenBank NP_542435.2) had been inserted; expressed in transfected cells; host or cells: HEK293 cells (cat #CCL-82.2, ATCC), transient transfection with pcDNA3.1
T1 sequence (Q8NER1 whole entry): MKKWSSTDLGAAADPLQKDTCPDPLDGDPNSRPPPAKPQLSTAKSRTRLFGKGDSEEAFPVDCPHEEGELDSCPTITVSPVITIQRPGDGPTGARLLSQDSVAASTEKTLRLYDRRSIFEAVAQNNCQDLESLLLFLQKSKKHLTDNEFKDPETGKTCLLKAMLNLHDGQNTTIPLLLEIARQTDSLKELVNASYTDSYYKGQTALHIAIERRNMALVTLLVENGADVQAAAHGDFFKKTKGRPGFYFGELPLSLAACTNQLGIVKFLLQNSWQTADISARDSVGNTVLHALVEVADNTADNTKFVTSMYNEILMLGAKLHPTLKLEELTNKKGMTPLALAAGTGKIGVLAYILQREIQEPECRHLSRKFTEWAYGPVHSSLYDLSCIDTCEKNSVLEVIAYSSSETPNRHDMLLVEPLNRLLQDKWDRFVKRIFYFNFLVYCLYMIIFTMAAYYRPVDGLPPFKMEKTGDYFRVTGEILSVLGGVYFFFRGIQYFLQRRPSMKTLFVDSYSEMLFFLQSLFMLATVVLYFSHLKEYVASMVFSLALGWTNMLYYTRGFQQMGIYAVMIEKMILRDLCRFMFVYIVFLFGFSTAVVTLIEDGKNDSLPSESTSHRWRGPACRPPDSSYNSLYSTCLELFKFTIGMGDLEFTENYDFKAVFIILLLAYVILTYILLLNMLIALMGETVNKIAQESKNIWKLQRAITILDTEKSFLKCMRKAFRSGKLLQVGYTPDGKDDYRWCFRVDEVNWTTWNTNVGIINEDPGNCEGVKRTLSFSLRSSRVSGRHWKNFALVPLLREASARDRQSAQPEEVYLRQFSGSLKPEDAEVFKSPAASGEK
Kind of data set: Evaluation of agonistic properties using human TRPV1 transiently expressing cells. The data set is classed as cell-based. The following applies: for TRPV-1-agonistic activity (in words): evaluation test for TRPV-1-agonistic properties, summary of Tables 3 and 4. From the text: Test Example 1: Evaluation of Agonistic Properties Using Human TRPV1 Transiently Expressing Cells
(1) Generation of Human TRPV1 Transiently Expressing Cells
Human TRPV1 transiently expressing cells were generated and subjected to culture. Specifically, HEK293 cells (cat #CCL-82.2, ATCC) were used as host cells. Human TRPV1 and apoaequorin were transiently expressed by introducing the mammalian cell expression pcDNA3.1 vector (cat #v790-20, Invitrogen) into which the TRPV1 gene (GenBank NP_542435.2) had been inserted.
The Dulbecco's Modified Eagle's Medium (DMEM) medium (cat #11550-043, Thermo Fisher Scientific) containing 10% inactivated fetal bovine serum (cat #10270-106, Thermo Fisher Scientific) was used as the medium, and the culture was carried out in tissue culture dishes (cat #3020-100, Iwaki). During the culture, cells were collected every 2 to 3 days by treating with PBS containing 10% 2.5 g/1-trypsin/[…] solution, phenol red (cat #32777-44, Nacalai Tesque), and passage culture was carried out.
Three days after the passage, cells were collected with 10% trypsin-PBS treatment at a state of about 80% confluency, suspended in a DMEM medium containing 10% fetal bovine serum to 4000 cells/35 μl/well, and seeded into 384-well plates (cat #353962, FALCON).
The day after seeding, Viviren (cat #E6492, Promega) was added (15 μl/well) to a final concentration of 4.5 μM/HBSS (cat #14065-056, Thermo Fisher Scientific)/90 mM HEPES (cat #17514-15, Nacalai Tesque)/0.1% BSA (cat #01281-84, Nacalai Tesque), and after centrifugation, the samples were allowed to stand at room temperature for 2 hours under light-shielded conditions.
(2) Preparation of Test Compounds
For the test compounds, dimethyl sulfoxide solutions were produced at a concentration 1000 times the final concentration, and from these solutions, solutions at concentration 10 times the final concentration were prepared with Hanks/20 mmol/L HEPES/0.10% BSA (cat #01281-84, Nacalai Tesque).
(3) Evaluation of TRPV1-Agonistic Properties
FDSS7000 (Hamamatsu Photonics K.K.) was used for detection of TRPV1 agonist-stimulated luminescence signals. The test compounds were added to plates to which the cells and luminescent substrates had been added. The luminescence signals (center wavelength: 465 nm) after addition of the test compounds were measured, and the Rlu (Max−Min) was calculated.

Data set [1] in a line: Evaluation test for metabolic stability to S9. The data set is classed as in vitro ADME. The following applies: liver S9 fraction, 37° C., 15 minutes, final compound concentration 10 nM. Here is the method:
Test Example 4: Evaluation Test for Metabolic Stability to S9
The compounds were added to a reaction solution in which the liver S9 fraction was diluted with phosphate buffer, and incubation was initiated at 37° C. (final compound concentration 10 nM, final volume 300 μL). After incubation for 15 minutes, the reaction was stopped by adding the reaction solution to acetonitrile, and centrifugation was carried out. After filtering the supernatant through a filter, the amount of compounds was determined using LC/MS/MS. From the amount of compounds obtained, the residual rate 15 minutes after the initiation of the reaction was calculated relative to the amount of compounds before the initiation of the reaction (0 minutes).

The mark [2] stands for this setting: HEK293 cells transiently expressing human TRPV1 and apoaequorin, luminescence signal Rlu (Max-Min), read-out: TRPV1 EC50.

In the case of `COc1cc(CC(=O)Nc2cccc([C@H]3CC[C@@H](OC(=O)Cc4ccc(Cl)cc4)CC3)c2)ccc1O` [Example 14, cis-4-{3-[2-(4-hydroxy-3-methoxyphenyl)acetamido]phenyl}cyclohexyl (4-chlorophenyl)acetate], at Human TRPV1 (setting [2]), the EC50 stood at 6.3 nM. The “Residual rate (%)” value in data set [1] is listed as 11%.

Regarding `COc1cc(CC(=O)Nc2cccc([C@H]3CC[C@@H](OC(=O)Cc4ccccc4F)CC3)c2)ccc1O` [Example 15, cis-4-{3-[2-(4-hydroxy-3-methoxyphenyl)acetamido]phenyl}cyclohexyl (2-fluorophenyl)acetate], on Human TRPV1 (setting [2]), the EC50 was found to be 4.6 nM. Besides, the “TRPV-1-agonistic activity (in words)” value on Human TRPV1 is recorded as “stronger TRPV-1-agonistic activity”. For the same compound, the “Residual rate (%)” value in data set [1] was found to be 69%.

Consider `CCC(=O)Oc1cccc(-c2cccc(NC(=O)Cc3ccc(O)c(OC)c3)c2)c1` [Example 16, 3′-[2-(4-hydroxy-3-methoxyphenyl)acetamido][1,1′-biphenyl]-3-yl propanoate], for which the EC50 on Human TRPV1 (setting [2]) came to 6.3 nM. In data set [1], the “Residual rate (%)” value is on record as <1%.

For `COc1cc(CC(=O)Nc2cccc([C@H]3CC[C@@H](OC(=O)C(C)C)CC3)c2)ccc1O` [Example 17, cis-4-{3-[2-(4-hydroxy-3-methoxyphenyl)acetamido]phenyl}cyclohexyl 2-methylpropanoate], the EC50 on Human TRPV1 (setting [2]) amounted to 2.6 nM. Further, the “TRPV-1-agonistic activity (in words)” value at Human TRPV1 is listed as “stronger TRPV-1-agonistic activity”. Also, the “Residual rate (%)” value in data set [1] is on record as <1%.

For the compound `COc1cc(CC(=O)Nc2cccc(-c3cccc(OC(=O)Cc4ccccc4)c3)c2)ccc1O` [Example 18, 3′-[2-(4-hydroxy-3-methoxyphenyl)acetamido][1,1′-biphenyl]-3-yl phenylacetate], the EC50 at Human TRPV1 was determined as 5.4 nM. For the same compound, in data set [1], the “Residual rate (%)” value is given as <1%.

Regarding `COc1cc(CC(=O)Nc2ccc(F)c(-c3cccc(OC(=O)C(C)C)c3)c2)ccc1O` [Example 19, 2′-fluoro-5′-[2-(4-hydroxy-3-methoxyphenyl)acetamido][1,1′-biphenyl]-3-yl 2-methylpropanoate], the EC50 at Human TRPV1 (setting [2]) turned out to be 2.7 nM. In addition, the “TRPV-1-agonistic activity (in words)” value at Human TRPV1 is listed as “stronger TRPV-1-agonistic activity”. Further, the “Residual rate (%)” value in data set [1] is <1%.

Take `COc1cc(CC(=O)Nc2cc(-c3cccc(OC(=O)C(C)C)c3)ccc2OC)ccc1O` [Example 20, 3′-[2-(4-hydroxy-3-methoxyphenyl)acetamido]-4′-methoxy[1,1′-biphenyl]-3-yl 2-methylpropanoate]: the EC50 on Human TRPV1 (setting [2]) worked out at 35.1 nM. The “Residual rate (%)” value in data set [1] was <1%.

Consider `COc1cc(CC(=O)Nc2cccc(-c3cccc(OC(=O)C(C)C)c3)c2OC)ccc1O` [Example 21, 3′-[2-(4-hydroxy-3-methoxyphenyl)acetamido]-2′-methoxy[1,1′-biphenyl]-3-yl 2-methylpropanoate], for which, on Human TRPV1 (setting [2]), the EC50 turned out to be 6750 nM. Also, the “Residual rate (%)” value in data set [1] is reported as <1%.

Turning to `COc1cc(CC(=O)Nc2cc(-c3cccc(OC(=O)C(C)C)c3)ccc2F)ccc1O` [Example 22, 4′-fluoro-3′-[2-(4-hydroxy-3-methoxyphenyl)acetamido][1,1′-biphenyl]-3-yl 2-methylpropanoate], the EC50 at Human TRPV1 (setting [2]) was 6.8 nM. Moreover, in data set [1], the “Residual rate (%)” value is listed as <1%.

On to `COc1cc(CC(=O)Nc2cccc(-c3cccc(OC(=O)C(C)C)c3)c2F)ccc1O` [Example 23, 2′-fluoro-3′-[2-(4-hydroxy-3-methoxyphenyl)acetamido][1,1′-biphenyl]-3-yl 2-methylpropanoate], for which the half-maximal effective concentration (EC50) at Human TRPV1 (setting [2]) is 15.2 nM. Besides, the “Residual rate (%)” value in data set [1] is reported as <1%.

With `COc1cc(CC(=O)Nc2cccc(-c3cccc(OC(=O)C(C)C)c3)c2)ccc1O` [Example 24, 3′-[2-(4-hydroxy-3-methoxyphenyl)acetamido][1,1′-biphenyl]-3-yl 2-methylpropanoate], the EC50 at Human TRPV1 (setting [2]) was determined as 3.9 nM. The “TRPV-1-agonistic activity (in words)” value at Human TRPV1 is recorded as “stronger TRPV-1-agonistic activity”. Moreover, the “Residual rate (%)” value in data set [1] is <1%.

For `COc1cc(CC(=O)Nc2cc(-c3cccc(OC(=O)C(C)C)c3)ccn2)ccc1O` [Example 25, 3-{2-[2-(4-hydroxy-3-methoxyphenyl)acetamido]pyridin-4-yl}phenyl 2-methylpropanoate], the EC50 on Human TRPV1 (setting [2]) stood at 38 nM. In addition, the “Residual rate (%)” value in data set [1] is <1%.

Take `COc1cc(CC(=O)Nc2cccc(-c3cccc(OC(=O)Cc4ccc(C)cc4)c3)c2)ccc1O` [Example 27, 3′-[2-(4-hydroxy-3-methoxyphenyl)acetamido][1,1′-biphenyl]-3-yl (4-methylphenyl)acetate]: at Human TRPV1 (setting [2]), the EC50 was determined as 11.1 nM. Moreover, the “Residual rate (%)” value in data set [1] was <1%.

`COc1cc(CC(=O)Nc2cccc(-c3cccc(OC(=O)Cc4ccccc4F)c3)c2)ccc1O` [Example 28, 3′-[2-(4-hydroxy-3-methoxyphenyl)acetamido][1,1′-biphenyl]-3-yl (2-fluorophenyl)acetate]: the concentration giving a half-maximal response (EC50) on Human TRPV1 (setting [2]) is 8.8 nM. For the same compound, in data set [1], the “Residual rate (%)” value is <1%.

Turning to `COc1cc(CC(=O)Nc2cccc(-c3cccc(OC(=O)CC4CCOCC4)c3)c2)ccc1O` [Example 29, 3′-[2-(4-hydroxy-3-methoxyphenyl)acetamido][1,1′-biphenyl]-3-yl (oxa-4-yl)acetate], the 50% effective concentration (EC50) at Human TRPV1 (setting [2]) amounted to 13.2 nM. Also, the “Residual rate (%)” value in data set [1] is <1%.

In the case of `COc1cc(CC(=O)Nc2cccc(-c3cccc(OC(=O)CC4CCCCC4)c3)c2)ccc1O` [Example 30, 3′-[2-(4-hydroxy-3-methoxyphenyl)acetamido][1,1′-biphenyl]-3-yl cyclohexylacetate], at Human TRPV1 (setting [2]), the 50% effective concentration (EC50) is 7.2 nM. The “Residual rate (%)” value in data set [1] was <1%.

For the compound `COc1cc(CC(=O)Nc2ccnc(-c3cccc(OC(=O)CC4CCCCC4)c3)c2)ccc1O` [Example 31, 3-{4-[2-(4-hydroxy-3-methoxyphenyl)acetamido]pyridin-2-yl}phenyl cyclohexylacetate], the concentration for a half-maximal effect (EC50) on Human TRPV1 (setting [2]) worked out at 14.9 nM. The “Residual rate (%)” value in data set [1] is <1%.

Regarding `COc1cc(CC(=O)Nc2cccc(-c3cccc(OC(=O)CC4CCCCC4)c3)n2)ccc1O` [Example 32, 3-{6-[2-(4-hydroxy-3-methoxyphenyl)acetamido]pyridin-2-yl}phenyl cyclohexylacetate], the EC50 on Human TRPV1 (setting [2]) is 11.6 nM. In addition, in data set [1], the “Residual rate (%)” value turned out to be 2%.

Regarding `COc1cc(CC(=O)Nc2ccnc(-c3cccc(OC(=O)C4CCCCC4)c3)c2)ccc1O` [Example 33, 3-{4-[2-(4-hydroxy-3-methoxyphenyl)acetamido]pyridin-2-yl}phenyl cyclohexanecarboxylate hydrochloride], the EC50 at Human TRPV1 (setting [2]) stood at 12.5 nM. In data set [1], the “Residual rate (%)” value is given as <1%.

On to `COc1cc(CC(=O)Nc2cccc(-c3cccc(OC(=O)C4CCCCC4)c3)n2)ccc1O` [Example 34, 3-{6-[2-(4-hydroxy-3-methoxyphenyl)acetamido]pyridin-2-yl}phenyl cyclohexanecarboxylate], for which the EC50 on Human TRPV1 (setting [2]) was 12.8 nM. The “Residual rate (%)” value in data set [1] is <1%.

For `COc1cc(CNC(=O)c2cccc(-c3cccc(OC(=O)C(C)C)c3)c2)ccc1O` [Example 44, 3′-1{[(4-hydroxy-3-methoxyphenyl)methyl]carbamoyl}[1,1′-biphenyl]-3-yl 2-methylpropanoate], the EC50 on Human TRPV1 (setting [2]) amounted to 10.2 nM. For the same compound, the “Residual rate (%)” value in data set [1] is on record as <1%.

As for `COc1cc(CNC(=O)c2cccc(-c3cccc(OC(=O)CC4CCCCC4)c3)c2)ccc1O` [Example 45, 3′-{[(4-hydroxy-3-methoxyphenyl)methyl]carbamoyl}[1,1′-biphenyl]-3-yl cyclohexylacetate], the EC50 at Human TRPV1 (setting [2]) was determined as 31.3 nM. Moreover, the “Residual rate (%)” value in data set [1] was <1%.

Turning to `COc1cc(CNC(=O)c2ccnc(-c3cccc(OC(=O)C(C)C)c3)c2)ccc1O` [Example 46, 3-(4-{[(4-hydroxy-3-methoxyphenyl)methyl]carbamoyl}pyridin-2-yl)phenyl 2-methylpropanoate], the half-maximal effective concentration (EC50) at Human TRPV1 (setting [2]) was determined as 4.3 nM. Moreover, the “TRPV-1-agonistic activity (in words)” value at Human TRPV1 is on record as “stronger TRPV-1-agonistic activity”. Also, the “Residual rate (%)” value in data set [1] is on record as <1%.
